Measured values reported in patent US20250214996A1, “SALTS AND SOLID FORMS OF AN ESTROGEN RECEPTOR ANTAGONIST” (Olema Pharmaceuticals, Inc., priority 2022, published 2025).
Values after ≈ are worked out from the molar mass of the structure shown. Values joined by “and” are separate entries in the source; they are usually repeats but may differ in a detail not shown here. Identical values can stand only once. Like-named read-outs stand apart in the source and are kept apart here. Marks after values point to notes of the source that are not given here.

Tests used:
[1] = Solid form change on heating (XRPD); format: physicochemical
[2] = Pharmacokinetic study in Beagle dogs, oral capsule; format: in vivo; settings: for AUClast/D / AUC∞/D: dose-normalised
Description: Compound 1 […] in two different forms was administered orally (PO) to male and female Beagle dogs. Blood was serially collected up to 144 hours post dose for determination of plasma pharmacokinetic analysis.
Animals were healthy at the start of the study and were between 1 and 6.5 years of age. Initial body weights were recorded at the start of the study and general health observations were recorded at each blood collection time point.
Each Group contained 3 male and 1 female dog. Capsules were administered by placing the capsule to the back of the throat, followed by a 10 mL flush with drinking water.
Plasma concentrations of Compound 1 were determined by LC-MS/MS. Pharmacokinetic parameters were determined using Phoenix WinNonlin (v8.0) non-compartmental analyses.

[3] = Kinetic solubility estimate, solvent aliquot addition, visual observation; format: physicochemical
Description: A polymorph screen was conducted using amorphous Compound 1. To help design the experiments, kinetic solubilities of the compound were estimated. The estimation was done using a solvent aliquot addition method, and dissolution was judged by visual observation. In Table 14, solvent ratios (v/v) are approximate; values are rounded to nearest whole number. If complete dissolution was achieved by one aliquot addition, solubilities were reported as “>”; if […], solubilities were reported as “<”. The actual solubility may be larger than the value calculated due to the use of solvent aliquots that were too large or due to a slow rate of dissolution.
A polymorph screen was conducted using Compound 1 Fumarate Form A Ethyl Acetate Solvate. The screen consisted primarily of long term slurry experiments. To help design screen experiments, kinetic solubilities of Fumarate Form A Ethyl Acetate Solvate were estimated. The estimation was done on a 3-11 mg scale using a solvent aliquot addition method, and dissolution was judged by visual observation. Solubilities are estimated at ambient temperature and reported to the nearest mg/mL; if complete dissolution was achieved by one aliquot addition, solubilites were reported as […]

[4] = Dynamic vapor sorption (DVS) hygroscopicity; format: physicochemical; settings: for Form Change after DVS?: XRPD before and after DVS
Description: Dynamic Vapor Sorption (DVS) was measured by a SMS (Surface Measurement Systems) DVS Intrinsic. Parameters for DVS test are listed below:
Alternatively, DVS was performed using Intrinsic DVS ([…], UK). About 30-50 mg of sample was placed in a sample basked and hung in the measuring chamber. For an isotherm test, the chamber temperature is maintained by a water bath at a constant 25±1° C. The sample was tested at a targeted RH from 0 to 90% full cycle in step mode. The analysis was performed in 10% RH increments. Time duration at each RH was set as 60 min so that the sample could reach equilibrium with the chamber environment. Data were collected in 20 s increments.
A DVS isotherm plot was collected at 25° C. to investigate the solid form stability as a function of humidity. For Compound 1 Fumarate Form A Anhydrate, solids were pre-equilibrated at 0% RH to remove the unbounded solvent or water before the hygroscopicity experiment was started.

[5] = Solubility by dynamic method; format: physicochemical; settings: for solubility at 15 min: organic solvent or mixture, thermodynamic from solid; for solubility at 15 min / Solubility: Dynamic
Description: […] Solubility was measured by the dynamic method and gravimetric method.
Dynamic method: Under the condition of a certain amount of solute and certain temperature, solvent was gradually added with stirring for 15 min to reach equilibrium. When solute is completely dissolved, amount of solvent was recorded and the solubility calculated.

[6] = Stability in oven at 60° C. for two weeks; format: physicochemical; settings: for HPLC Purity (%) Starting: before storage; for XRPD: form after oven at 60° C. for two weeks
Description: Amorphous Compound 1, Compound 1 Fumarate Form E, and Compound 1 Fumarate Form A Anhydrate were placed in an oven at 60° C. for two weeks to evaluate their stability.

[7] = Bulk density in graduated cylinder; format: physicochemical
Description: Bulk density of Compound 1 Fumarate Form E was measured by gently introducing a known sample mass into a graduated cylinder (50 mL), leveling the powder without compacting it, and recording the apparent untapped volume to the nearest graduated unit.

[8] = Solubility by gravimetric method; format: physicochemical; settings: H2O, 25° C.
Description: Solubility studies of Compound 1 and Compound 1 Fumarate in different solvents at 25° C. were performed. Solubility was measured by the dynamic method and gravimetric method.
Gravimetric method: Excess solids and a certain amount of solvent were added 8 mL vials, stirred for 24 hours, and filtered.

[9] = Competitive slurry of Fumarate Form E and Fumarate Form A Anhydrate (XRPD); format: physicochemical
Description: Competitive slurry experiments were performed with Compound 1 Fumarate Form E and Compound 1 Fumarate Form A Anhydrate, as follows:
Experiment #1: Compound 1 Fumarate Form E (100 mg), Compound 1 Fumarate Form A Anhydrate (100 mg), and isopropanol (2 mL) were added into two 8-mL vials and mixed well in a shaker at 25° C. and 40° C., respectively. Samples for analysis were taken at 24 h and 72 h.
Experiment #2: Compound 1 Fumarate Form E (100 mg), Compound 1 Fumarate Form A Anhydrate (100 mg), and water (2 mL) were added into two 8-mL vials and mixed well in a shaker at 25° C. and 40° C., respectively. Samples for analysis were taken at 24 h and 72 h.
Experiment #3: Compound 1 Fumarate Form E (100 mg), Compound 1 Fumarate Form A Anhydrate (100 mg), and ethyl acetate (2 mL) were added into two 8-mL vials and mixed well in a shaker at 25° C. and 40° C., respectively. Samples for analysis were taken at 24 h and 72 h.

[10] = dose 5.34 mg/kg (Group 1), 7.4 mg/kg (Group 2), plasma
[11] = both sexes, dog, dose 5.34 mg/kg (Group 1), 7.4 mg/kg (Group 2), plasma

Compound: CCCN1CC(Oc2ccc([C@@H]3c4[nH]c5ccccc5c4C[C@@H](C)N3CC(C)(C)F)cc2)C1 [Compound 1 Form B]
- form after heating (XRPD) ([1]; heating to 100° C.): became amorphous

Compound: CCCN1CC(Oc2ccc([C@@H]3c4[nH]c5ccccc5c4C[C@@H](C)N3CC(C)(C)F)cc2)C1.O=C(O)/C=C/C(=O)O
- AUC∞ ([2]; dose 5.34 mg/kg (Group 1), 7.4 mg/kg (Group 2)): 17271 ng·h/mL
- MRTlast [2, 10]: 39.8 h
- t1/2 [2, 10]: 49.6 h
- tmax [2, 10]: 3.5 h
- AUClast/D [2]: 2001 kg·ng·h/mL/mg
- AUC∞/D [2]: 2351 kg·ng·h/mL/mg
- Solubility ([3]; ambient temperature, 2-BuOH): 17 mg/mL
- Solubility ([3]; ambient temperature, 2-McTHF): 32 mg/mL
- Solubility (mg/mL) ([3]; ambient temperature, ACN, re-precipitated after first aliquot): <2* mg/mL
- Solubility ([3]; ambient temperature, Anisole): <1 mg/mL
- Solubility ([3]; ambient temperature, DCE): <9 mg/mL
- Solubility (mg/mL) ([3]; ambient temperature, DCE/EtOH (96/4)): Dissolved at 8 mg/mL
- Solubility ([3]; ambient temperature, Dioxane): >104 mg/mL
- Solubility ([3]; ambient temperature, IPA): 20 mg/mL
- Solubility ([3]; ambient temperature, IPA/water (50/50)): >124 mg/mL
- Solubility ([3]; ambient temperature, MIBK): 4 mg/mL
- Solubility ([3]; ambient temperature, MTBE): 2 mg/mL
- Solubility ([3]; ambient temperature, TFE): >100 mg/mL
- Solubility (mg/mL) ([3]; ambient temperature, t-BuOAc, re-precipitated after first aliquot): 1* mg/mL

Compound: CCCN1CC(Oc2ccc([C@@H]3c4[nH]c5ccccc5c4C[C@@H](C)N3CC(C)(C)F)cc2)C1 [Compound 1 Form A Acetonitrile Solvate]
- form after heating (XRPD) ([1]; heating to 70° C. and 80° C.): became amorphous
- hygroscopicity by DVS ([4]; DVS): slightly hygroscopic
- water uptake (DVS) ([4]; DVS, FIG. 4): 1.9%
- Form Change after DVS? [4]: same crystalline pattern after DVS

Compound: CCCN1CC(Oc2ccc([C@@H]3c4[nH]c5ccccc5c4C[C@@H](C)N3CC(C)(C)F)cc2)C1 [Amorphous Compound 1]
- solubility in isopropanol ([5]; 25° C.): high solubility
- solubility at 15 min ([5]; IPA, 25° C.): > 468 mg/mL
- Form Change after DVS? ([4]; listed as Amorphous Freebase): No
- Hygroscopicity (%)* (class) ([4]; based on water uptake at 25° C./80% RH): Slightly
- Hygroscopicity (%)* (water uptake) ([4]; water uptake at 25° C./80% RH): (0.463) %
- Cmax [2, 11]: 343 ng/mL
- MRT last [2, 11]: 37.8 h
- half-life [2, 11]: 56.4 h
- tmax ([2]; both sexes, dog, dose 5.34 mg/kg (Group 1), 7.4 mg/kg (Group 2), plasma, read-out: tmax): 3.25 h
- AUC(0-inf) ([2]; both sexes, dog, plasma, dose 5.34 mg/kg (Group 1), 7.4 mg/kg (Group 2)): 8960 ng·h/mL
- AUC(0-t) ([2]; both sexes, dog, plasma, dose 5.34 mg/kg (Group 1), 7.4 mg/kg (Group 2), up to 144 hours): 7460 ng·h/mL
- AUClast/D [2]: 1297 kg·ng·h/mL/mg
- AUC∞/D [2]: 1527 kg·ng·h/mL/mg
- Solubility ([3]; aqueous with cosolvent or surfactant or cyclodextrin, thermodynamic from solid, amorphous Compound 1, 2-MeTHF/MeOH/water (60/20/20), read-out: Solubility): 106 mg/mL (≈ 236 mM)
- Solubility ([3]; aqueous with cosolvent or surfactant or cyclodextrin, thermodynamic from solid, amorphous Compound 1, ACN/water (60/40), read-out: Solubility): < 6 mg/mL
- Solubility ([3]; aqueous with cosolvent or surfactant or cyclodextrin, thermodynamic from solid, amorphous Compound 1, Dioxane/water (60/40), read-out: Solubility): < 13 mg/mL
- Solubility ([3]; aqueous with cosolvent or surfactant or cyclodextrin, thermodynamic from solid, amorphous Compound 1, MeOH/water (40/60), appeared hydrophobic, read-out: Solubility): < 55 mg/mL
- Solubility ([3]; aqueous with cosolvent or surfactant or cyclodextrin, thermodynamic from solid, amorphous Compound 1, NMP/water (68/32), read-out: Solubility): 7 mg/mL (≈ 15.6 mM)
- Solubility ([3]; organic solvent or mixture, thermodynamic from solid, amorphous Compound 1, Heptane, read-out: Solubility): > 191 mg/mL
- Solubility ([3]; organic solvent or mixture, thermodynamic from solid, amorphous Compound 1, IPA, read-out: Solubility): 82 mg/mL (≈ 182 mM)
- HPLC Purity (%) Starting [6]: 99.23%
- XRPD [6]: No change
- HPLC Purity (%) 60° C. ([6]; oven at 60° C. for two weeks): 98.94%
- HPLC Purity (%) Degradation ([6]; oven at 60° C. for two weeks): −0.29%

Compound: O=C(O)/C=C/C(=O)O [Fumaric acid]
- solubility in isopropanol ([5]; 25° C.): relatively low solubility
- solubility at 15 min ([5]; IPA, 25° C.): 34.3 mg/mL (≈ 296 mM)

Compound: CCCN1CC(Oc2ccc([C@@H]3c4[nH]c5ccccc5c4C[C@@H](C)N3CC(C)(C)F)cc2)C1.O=C(O)/C=C/C(=O)O [Compound 1 Fumarate Form E]
- Bulk Density (g/mL), Average ([7]; average of three runs): 0.1239 g/mL
- Bulk Density ([7]; untapped, runs 1-3): 0.1288 g/mL and 0.1233 g/mL and 0.1196 g/mL
- Solubility ([5]; IPA/heptane (1/1), 25° C.): ~2.35 mg/mL
- Solubility ([5]; IPA/heptane (1/3), 25° C.): <1 mg/mL
- Solubility ([5]; IPA/heptane (5/1), 25° C.): 5.89 mg/mL
- Solubility ([5]; IPA/heptane (5/3), 25° C.): ~3.57 mg/mL
- Solubility ([5]; IPA, 0° C.): <1 mg/mL
- Solubility ([5]; IPA, 25° C.): ~8.46 mg/mL
- solubility in isopropanol ([5]; 25° C.): very low solubility
- hygroscopicity by DVS ([4]; DVS): not hygroscopic
- HPLC Purity (%) Starting [6]: 99.54%
- XRPD [6]: No change
- HPLC Purity (%) 60° C. ([6]; oven at 60° C. for two weeks): 99.50%
- HPLC Purity (%) Degradation ([6]; oven at 60° C. for two weeks): −0.05%
- stability relative to Amorphous Compound 1 ([6]; oven at 60° C. for two weeks): improved stability
- Solubility [8]: 1.0 mg/mL
- competitive slurry outcome (XRPD) ([9]; ethyl acetate, 72 h at 25° C. or 40° C.): a mixture of Compound 1 Fumarate Form E and Compound 1 Fumarate Form A Anhydrate remained
- competitive slurry outcome (XRPD) ([9]; isopropanol, 24 h at 25° C. or 40° C.): more stable than Form A in isopropanol
- competitive slurry outcome (XRPD) ([9]; water, 72 h at 25° C. or 40° C.): a mixture of Compound 1 Fumarate Form E and Compound 1 Fumarate Form A Anhydrate remained
